Measured values as given in ChEMBL document CHEMBL5696442, “Discovery of type II inhibitors of TGFβ-activated kinase 1 (TAK1) and mitogen-activated protein kinase kinase kinase kinase 2 (MAP4K2)” (J Med Chem, 2015).
The source made the active and inactive calls. The calls are words filed in the database; no cut-off is given here.

What was measured:
[1] = molecular target: Cyclin-dependent kinase 5 (Homo sapiens) (UniProt Q00535); test: Inhibition of CDK5 Lys2 labeling site harbouring DLKPQNLLINR in human Huh-7 cell lysate at 1 uM by KiNativ Profiling analysis relative to control; format: subcellular
[2] = molecular target: Epidermal growth factor receptor (Homo sapiens) (UniProt P00533); test: Inhibition of EGFR Lys1 labeling site harbouring IPVAIKELR in human Huh-7 cells at 1 uM by KiNativ Profiling analysis relative to control; format: cell-based
[3] = molecular target: Serine/threonine-protein kinase 24 (Homo sapiens) (UniProt Q9Y6E0); test: Inhibition of MST3 Lys2 labeling site harbouring DIKAANVLLSEHGEVK in human Huh-7 cells at 1 uM by KiNativ Profiling analysis relative to control; format: cell-based
[4] = molecular target: Cyclin-dependent kinase 18 (Homo sapiens) (UniProt Q07002); test: Inhibition of PCTAIRE3 Lys1 labeling site in human Huh-7 cells at 1 uM by KiNativ Profiling analysis relative to control; format: cell-based
[5] = molecular target: T1, Serine/threonine-protein kinase TAO2 (Homo sapiens) (UniProt Q9UL54); test: Inhibition of TAO2 Lys2 labeling site in human A-375 cells at 0.05 uM by KiNativ Profiling analysis relative to control; format: cell-based
T1 sequence (whole entry): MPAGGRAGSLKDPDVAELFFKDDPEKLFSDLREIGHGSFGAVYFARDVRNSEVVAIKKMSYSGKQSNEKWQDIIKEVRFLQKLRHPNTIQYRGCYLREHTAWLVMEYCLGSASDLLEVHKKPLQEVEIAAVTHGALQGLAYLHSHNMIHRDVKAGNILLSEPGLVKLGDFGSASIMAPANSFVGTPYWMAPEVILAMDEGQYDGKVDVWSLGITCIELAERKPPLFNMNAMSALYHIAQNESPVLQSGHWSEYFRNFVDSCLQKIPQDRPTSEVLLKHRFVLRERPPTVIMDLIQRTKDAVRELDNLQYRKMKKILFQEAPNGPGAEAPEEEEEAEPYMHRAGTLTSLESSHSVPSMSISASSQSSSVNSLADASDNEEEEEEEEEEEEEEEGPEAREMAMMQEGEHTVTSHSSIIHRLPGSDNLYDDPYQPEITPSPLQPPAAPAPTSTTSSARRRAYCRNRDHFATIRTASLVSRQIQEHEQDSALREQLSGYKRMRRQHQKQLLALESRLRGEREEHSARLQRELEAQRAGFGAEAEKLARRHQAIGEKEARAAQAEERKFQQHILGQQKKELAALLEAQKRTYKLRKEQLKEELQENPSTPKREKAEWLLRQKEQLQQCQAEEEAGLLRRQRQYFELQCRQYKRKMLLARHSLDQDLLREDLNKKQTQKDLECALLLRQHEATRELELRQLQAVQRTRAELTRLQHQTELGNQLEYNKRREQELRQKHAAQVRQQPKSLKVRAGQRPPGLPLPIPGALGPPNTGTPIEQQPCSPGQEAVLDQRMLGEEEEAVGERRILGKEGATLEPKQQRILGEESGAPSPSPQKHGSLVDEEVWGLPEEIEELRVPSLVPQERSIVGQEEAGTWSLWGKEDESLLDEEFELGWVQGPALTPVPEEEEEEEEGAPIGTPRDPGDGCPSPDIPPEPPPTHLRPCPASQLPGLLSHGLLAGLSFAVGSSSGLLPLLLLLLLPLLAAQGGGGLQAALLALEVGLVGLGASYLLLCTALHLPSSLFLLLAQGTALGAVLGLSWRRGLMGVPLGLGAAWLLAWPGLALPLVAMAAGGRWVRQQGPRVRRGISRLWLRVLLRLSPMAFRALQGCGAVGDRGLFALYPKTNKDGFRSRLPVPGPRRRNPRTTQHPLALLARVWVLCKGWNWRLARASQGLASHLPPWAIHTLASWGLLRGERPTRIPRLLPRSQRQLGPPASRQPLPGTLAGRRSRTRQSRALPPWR

[6] = molecular target: Serine/threonine-protein kinase N2 (Homo sapiens) (UniProt Q16513); test: Inhibition of PKN2 (unknown origin) at 1 uM by Ambit Kinomescan binding assay relative to control; values are per cent of control
[7] = molecular target: Homeodomain-interacting protein kinase 4 (Homo sapiens) (UniProt Q8NE63); test: Inhibition of HIPK4 (unknown origin) at 1 uM by Ambit Kinomescan binding assay relative to control; values are per cent of control
[8] = molecular target: LIM domain kinase 1 (Homo sapiens) (UniProt P53667); test: Inhibition of LIMK1 (unknown origin) at 1 uM by Ambit Kinomescan binding assay relative to control; values are per cent of control
[9] = system: Receptor-type tyrosine-protein kinase FLT3 (Homo sapiens), P36888 [N841I]; test: Inhibition of FLT3 N841I mutant (unknown origin) at 1 uM by Ambit Kinomescan binding assay relative to control; values are per cent of control
[10] = molecular target: Casein kinase II subunit alpha (Homo sapiens) (UniProt P68400); test: Inhibition of CSNK2A1 (unknown origin) at 10 uM by Ambit Kinomescan binding assay
[11] = molecular target: Wee1-like protein kinase 2 (Homo sapiens) (UniProt P0C1S8); test: Inhibition of WEE2 (unknown origin) at 10 uM by Ambit Kinomescan binding assay
[12] = molecular target: Serine/threonine-protein kinase Nek4 (Homo sapiens) (UniProt P51957); test: Inhibition of NEK4 Lys2 labeling site in human A-375 cells at 0.05 uM by KiNativ Profiling analysis relative to control; format: cell-based
[13] = molecular target: T2, Phosphatidylinositol 5-phosphate 4-kinase type-2 gamma (Homo sapiens) (UniProt Q8TBX8); test: Inhibition of PIP5K2C ATP labeling site harbouring VKELPTLKDMDFLNK in human Huh-7 cells at 1 uM by KiNativ Profiling analysis relative to control; format: cell-based
T2 sequence (whole entry): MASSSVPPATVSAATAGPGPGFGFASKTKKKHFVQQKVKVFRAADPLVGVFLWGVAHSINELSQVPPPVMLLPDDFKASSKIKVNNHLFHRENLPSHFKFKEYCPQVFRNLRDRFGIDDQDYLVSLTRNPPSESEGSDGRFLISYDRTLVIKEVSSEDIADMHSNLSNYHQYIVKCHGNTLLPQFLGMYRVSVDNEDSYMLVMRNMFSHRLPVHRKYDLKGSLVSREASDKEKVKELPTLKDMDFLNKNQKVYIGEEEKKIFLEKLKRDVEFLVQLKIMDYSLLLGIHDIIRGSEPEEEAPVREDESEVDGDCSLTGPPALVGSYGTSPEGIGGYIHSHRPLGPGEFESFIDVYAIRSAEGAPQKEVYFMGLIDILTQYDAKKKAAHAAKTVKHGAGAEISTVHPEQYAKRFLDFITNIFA

[14] = molecular target: Tyrosine-protein kinase Tec (Homo sapiens) (UniProt P42680); test: Inhibition of TEC (unknown origin) at 10 uM by Ambit Kinomescan binding assay
Tyrosine-protein kinase Tec (Homo sapiens), sequence (P42680 whole entry, looked up): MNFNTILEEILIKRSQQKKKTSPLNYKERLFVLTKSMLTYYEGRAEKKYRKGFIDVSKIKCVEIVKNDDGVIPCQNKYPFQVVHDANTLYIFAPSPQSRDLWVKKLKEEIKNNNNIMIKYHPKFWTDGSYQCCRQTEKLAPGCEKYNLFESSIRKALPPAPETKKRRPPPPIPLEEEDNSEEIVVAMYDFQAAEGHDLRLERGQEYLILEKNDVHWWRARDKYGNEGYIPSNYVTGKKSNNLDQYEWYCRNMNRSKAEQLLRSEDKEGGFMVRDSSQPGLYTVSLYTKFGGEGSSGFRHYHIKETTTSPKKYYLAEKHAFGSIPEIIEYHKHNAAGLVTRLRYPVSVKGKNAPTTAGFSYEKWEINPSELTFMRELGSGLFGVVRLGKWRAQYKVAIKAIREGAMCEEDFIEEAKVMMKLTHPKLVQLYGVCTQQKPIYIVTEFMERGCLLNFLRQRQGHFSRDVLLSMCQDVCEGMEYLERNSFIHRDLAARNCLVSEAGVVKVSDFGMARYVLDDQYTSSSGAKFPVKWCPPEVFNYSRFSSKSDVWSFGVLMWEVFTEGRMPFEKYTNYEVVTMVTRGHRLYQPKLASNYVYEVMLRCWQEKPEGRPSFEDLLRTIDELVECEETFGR

Serine/threonine-protein kinase Nek4 (Homo sapiens), sequence (P51957 whole entry, looked up): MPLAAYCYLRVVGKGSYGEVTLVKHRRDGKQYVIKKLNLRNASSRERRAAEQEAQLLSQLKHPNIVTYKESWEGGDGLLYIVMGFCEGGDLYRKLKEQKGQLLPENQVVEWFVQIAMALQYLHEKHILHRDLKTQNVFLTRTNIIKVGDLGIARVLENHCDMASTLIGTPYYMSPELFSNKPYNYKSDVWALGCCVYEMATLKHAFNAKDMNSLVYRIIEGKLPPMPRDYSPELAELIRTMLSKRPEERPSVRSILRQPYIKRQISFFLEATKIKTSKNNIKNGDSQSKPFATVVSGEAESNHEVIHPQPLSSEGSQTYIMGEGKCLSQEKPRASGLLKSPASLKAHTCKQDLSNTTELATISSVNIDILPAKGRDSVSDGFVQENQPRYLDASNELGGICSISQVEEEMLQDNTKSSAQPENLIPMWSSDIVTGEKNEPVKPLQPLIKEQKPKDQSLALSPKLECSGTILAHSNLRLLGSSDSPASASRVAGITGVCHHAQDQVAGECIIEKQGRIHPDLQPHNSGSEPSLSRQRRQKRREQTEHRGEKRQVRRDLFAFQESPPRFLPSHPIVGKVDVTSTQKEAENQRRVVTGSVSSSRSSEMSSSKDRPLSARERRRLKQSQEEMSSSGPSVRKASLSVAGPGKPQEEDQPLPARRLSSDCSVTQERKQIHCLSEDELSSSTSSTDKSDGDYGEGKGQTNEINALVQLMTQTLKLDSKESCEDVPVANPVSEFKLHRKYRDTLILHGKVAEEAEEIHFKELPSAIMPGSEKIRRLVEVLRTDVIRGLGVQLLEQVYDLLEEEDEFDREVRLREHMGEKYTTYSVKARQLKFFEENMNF
Casein kinase II subunit alpha (Homo sapiens), sequence (P68400 whole entry, looked up): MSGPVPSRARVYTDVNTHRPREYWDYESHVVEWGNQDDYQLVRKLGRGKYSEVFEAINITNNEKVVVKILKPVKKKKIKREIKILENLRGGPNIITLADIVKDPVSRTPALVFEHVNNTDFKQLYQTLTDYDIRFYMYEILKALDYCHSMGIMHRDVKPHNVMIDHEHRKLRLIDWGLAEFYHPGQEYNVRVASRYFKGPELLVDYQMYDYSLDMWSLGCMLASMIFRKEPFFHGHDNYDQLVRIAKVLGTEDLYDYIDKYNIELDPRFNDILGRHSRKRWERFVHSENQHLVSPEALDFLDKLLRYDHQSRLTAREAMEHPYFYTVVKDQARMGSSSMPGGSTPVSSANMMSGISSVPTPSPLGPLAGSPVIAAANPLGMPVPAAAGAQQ
Wee1-like protein kinase 2 (Homo sapiens), sequence (P0C1S8 whole entry, looked up): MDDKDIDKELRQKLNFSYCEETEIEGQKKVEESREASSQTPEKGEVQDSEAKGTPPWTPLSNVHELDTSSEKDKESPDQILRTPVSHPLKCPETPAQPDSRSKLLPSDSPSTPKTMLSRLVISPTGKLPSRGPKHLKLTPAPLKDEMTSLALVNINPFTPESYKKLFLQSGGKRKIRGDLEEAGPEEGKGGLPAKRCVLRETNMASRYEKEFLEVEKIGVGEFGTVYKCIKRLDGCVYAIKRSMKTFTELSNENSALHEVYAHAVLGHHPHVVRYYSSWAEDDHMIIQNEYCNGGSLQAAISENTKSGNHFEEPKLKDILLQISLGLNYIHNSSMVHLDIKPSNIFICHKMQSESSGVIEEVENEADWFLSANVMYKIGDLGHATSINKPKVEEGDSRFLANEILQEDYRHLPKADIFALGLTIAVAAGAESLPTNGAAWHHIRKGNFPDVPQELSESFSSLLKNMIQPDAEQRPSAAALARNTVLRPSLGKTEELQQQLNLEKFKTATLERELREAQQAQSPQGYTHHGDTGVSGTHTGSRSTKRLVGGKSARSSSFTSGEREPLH
LIM domain kinase 1 (Homo sapiens), sequence (P53667 whole entry, looked up, the tested form may be a part): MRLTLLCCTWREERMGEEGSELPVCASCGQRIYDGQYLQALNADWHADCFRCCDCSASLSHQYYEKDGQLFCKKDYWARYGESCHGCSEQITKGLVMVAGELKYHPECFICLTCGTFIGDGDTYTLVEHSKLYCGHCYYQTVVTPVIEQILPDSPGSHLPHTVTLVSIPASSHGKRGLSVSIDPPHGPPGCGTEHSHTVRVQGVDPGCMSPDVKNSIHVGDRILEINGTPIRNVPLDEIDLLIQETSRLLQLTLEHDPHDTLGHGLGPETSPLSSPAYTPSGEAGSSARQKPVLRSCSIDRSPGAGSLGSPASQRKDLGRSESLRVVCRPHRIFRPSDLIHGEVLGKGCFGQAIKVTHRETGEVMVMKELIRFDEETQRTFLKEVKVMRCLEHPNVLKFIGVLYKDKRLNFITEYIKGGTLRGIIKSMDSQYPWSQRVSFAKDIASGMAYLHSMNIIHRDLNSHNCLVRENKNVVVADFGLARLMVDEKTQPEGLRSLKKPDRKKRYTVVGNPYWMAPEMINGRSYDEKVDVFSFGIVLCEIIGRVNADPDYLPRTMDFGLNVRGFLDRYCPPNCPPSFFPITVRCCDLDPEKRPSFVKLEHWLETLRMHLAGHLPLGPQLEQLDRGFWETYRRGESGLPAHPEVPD
Homeodomain-interacting protein kinase 4 (Homo sapiens), sequence (Q8NE63 whole entry, the tested form may be a part): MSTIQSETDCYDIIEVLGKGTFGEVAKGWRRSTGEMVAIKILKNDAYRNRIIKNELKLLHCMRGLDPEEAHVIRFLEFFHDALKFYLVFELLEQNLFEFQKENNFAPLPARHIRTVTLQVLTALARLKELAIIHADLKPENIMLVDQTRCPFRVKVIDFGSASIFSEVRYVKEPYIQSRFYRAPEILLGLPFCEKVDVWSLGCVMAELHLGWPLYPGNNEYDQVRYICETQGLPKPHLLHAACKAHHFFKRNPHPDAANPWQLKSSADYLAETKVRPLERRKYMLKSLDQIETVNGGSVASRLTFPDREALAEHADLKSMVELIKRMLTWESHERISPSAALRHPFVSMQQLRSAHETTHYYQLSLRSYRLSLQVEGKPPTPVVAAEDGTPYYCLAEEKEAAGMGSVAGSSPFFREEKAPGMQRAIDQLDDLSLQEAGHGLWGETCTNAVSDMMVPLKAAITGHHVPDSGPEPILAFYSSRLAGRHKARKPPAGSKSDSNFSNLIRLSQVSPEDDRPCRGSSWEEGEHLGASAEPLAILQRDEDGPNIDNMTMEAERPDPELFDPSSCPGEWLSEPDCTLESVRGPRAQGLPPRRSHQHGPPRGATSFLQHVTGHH
Cyclin-dependent kinase 5 (Homo sapiens), sequence (Q00535 whole entry, looked up): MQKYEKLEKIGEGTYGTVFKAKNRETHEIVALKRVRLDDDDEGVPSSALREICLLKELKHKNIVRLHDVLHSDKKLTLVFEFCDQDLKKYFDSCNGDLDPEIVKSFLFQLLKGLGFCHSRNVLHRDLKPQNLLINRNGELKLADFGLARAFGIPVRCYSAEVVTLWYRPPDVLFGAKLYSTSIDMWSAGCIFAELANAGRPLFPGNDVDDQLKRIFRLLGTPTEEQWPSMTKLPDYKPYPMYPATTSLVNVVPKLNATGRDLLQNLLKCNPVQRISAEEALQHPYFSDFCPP
Serine/threonine-protein kinase 24 (Homo sapiens), sequence (Q9Y6E0 whole entry, looked up): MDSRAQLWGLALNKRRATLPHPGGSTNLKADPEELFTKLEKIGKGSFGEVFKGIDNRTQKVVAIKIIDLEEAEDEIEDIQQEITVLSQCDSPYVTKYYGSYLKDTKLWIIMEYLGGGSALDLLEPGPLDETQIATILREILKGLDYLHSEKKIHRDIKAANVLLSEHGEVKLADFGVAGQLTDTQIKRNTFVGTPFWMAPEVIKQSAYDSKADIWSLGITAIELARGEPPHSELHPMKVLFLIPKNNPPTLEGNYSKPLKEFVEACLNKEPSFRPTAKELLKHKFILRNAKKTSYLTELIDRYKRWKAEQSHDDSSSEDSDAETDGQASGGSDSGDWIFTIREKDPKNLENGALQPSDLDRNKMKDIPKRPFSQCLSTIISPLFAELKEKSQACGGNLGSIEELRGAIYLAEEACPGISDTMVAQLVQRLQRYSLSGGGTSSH
Cyclin-dependent kinase 18 (Homo sapiens), sequence (Q07002 whole entry): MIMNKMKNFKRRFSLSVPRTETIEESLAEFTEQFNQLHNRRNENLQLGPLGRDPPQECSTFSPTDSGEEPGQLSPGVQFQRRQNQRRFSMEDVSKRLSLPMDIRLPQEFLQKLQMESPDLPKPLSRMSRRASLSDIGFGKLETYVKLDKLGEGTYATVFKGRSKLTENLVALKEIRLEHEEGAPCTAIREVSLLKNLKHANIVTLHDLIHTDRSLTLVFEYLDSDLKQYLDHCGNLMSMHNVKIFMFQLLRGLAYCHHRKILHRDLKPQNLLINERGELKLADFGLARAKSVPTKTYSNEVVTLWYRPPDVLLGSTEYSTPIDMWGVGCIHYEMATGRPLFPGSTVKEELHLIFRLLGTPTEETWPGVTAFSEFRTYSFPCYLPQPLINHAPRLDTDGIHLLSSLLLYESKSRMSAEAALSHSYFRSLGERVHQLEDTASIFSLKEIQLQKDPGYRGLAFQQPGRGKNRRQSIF

For `CNc1cc(Oc2cc(C(=O)Nc3cc(N4CCN(C)CC4)cc(C(F)(F)F)c3)ccc2C)ncn1`, the inhibition [1] was 2.6%, the inhibition [2] was 7.2% and the inhibition [3] was 4.3%. It also gave an inhibition [4] of 12%.

For `CCN1CCN(Cc2ccc(NC(=O)c3ccc(C)c(/C=C/c4cnc5[nH]ccc5c4OC)c3)cc2C(F)(F)F)CC1`, the inhibition [5] was 21.5%, the residual activity [6] was 35% and the residual activity [7] was 16%. It also gave a residual activity [8] of 25% and a residual activity [9] of 2.3%.

In the case of `CCN1CCN(Cc2ccc(NC(=O)c3ccc(C)c(Oc4ccnc5[nH]ccc45)c3)cc2C(F)(F)F)CC1`, the inhibition [10] is reported as “inactive”, the inhibition [11] is reported as “inactive” and the inhibition [12] is reported as 15.2%. For the same molecule, the inhibition [13] was 2.9% and the inhibition [14] was “inactive”.
